From patent publication US9999619B2, “Piperidin-4-yl azetidine derivatives as JAK1 inhibitors” (Incyte Corporation, priority 2010, dated 2018) come the findings set out here.

SMILES strings stand for the structures.

Holding throughout (assay type): biochemical
The target in assay [1] is human JAK1 (a.a. 837-1142). Description: In vitro JAK kinase assay (HTRF, phosphorylation of a biotinylated peptide), JAK1. Conditions: ratio of JAK2 IC50 to JAK1 IC50, measured at 1 mM ATP. The method in brief: (§1)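 N-terminal His-tagged catalytic domains, baculovirus-expressed in insect cells, phosphorylated a biotinylated peptide for 1 hr at room temperature. EDTA stop was followed by SA-APC and Eu-Py20 antibody for 40 minutes, with phosphopeptide read by HTRF.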
A general note: In TR-FRET formats the signal depends on donor and acceptor labels being close together.

For assay [2], the target named is human JAK1 (a.a. 837-1142) (Homo sapiens, UniProt P23458). Described as above. Conditions: measured at 1 mM ATP. The method in brief: as §1
Assay [3] deals with Jak2 (a.a. 828-1132) (Homo sapiens (Human), UniProt O60674). The experiment in a line: In vitro JAK kinase assay (HTRF, phosphorylation of a biotinylated peptide), JAK2. Conditions: measured at 1 mM ATP. The method in brief: as §1
Chain of Jak2 (a.a. 828-1132) (O60674 828-1132): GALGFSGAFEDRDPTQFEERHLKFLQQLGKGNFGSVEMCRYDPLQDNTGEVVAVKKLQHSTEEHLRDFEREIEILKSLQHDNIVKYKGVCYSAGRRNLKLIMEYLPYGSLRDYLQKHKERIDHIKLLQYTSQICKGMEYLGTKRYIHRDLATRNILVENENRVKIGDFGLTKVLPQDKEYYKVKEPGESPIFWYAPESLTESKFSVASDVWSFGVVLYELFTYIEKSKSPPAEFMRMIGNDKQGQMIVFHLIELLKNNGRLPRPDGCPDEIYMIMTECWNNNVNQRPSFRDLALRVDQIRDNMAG

Consider `N#CCC1(n2cc(-c3ncnc4[nH]ccc34)cn2)CN(C2CCN(C(=O)c3ccc(-c4ccc5cnccc5c4)c(F)c3)CC2)C1` [Example 115, {1-[1-(3-fluoro-4-isoquinolin-6-ylbenzoyl)piperidin-4-yl]-3-[4-(7H-pyrrolo[2,3-d]pyrimidin-4-yl)-1H-pyrazol-1-yl]azetidin-3-yl}acetonitrile], for which the “IC50 Ratio JAK2/JAK1” value in assay [1] is 15.7. The values for the concentration for half-maximal inhibition (IC50) in assay [2] and in assay [3] were at most 5 nM and 10 to 50 nM, respectively.
For `N#CCC1(n2cc(-c3ncnc4[nH]ccc34)cn2)CN(C2CCN(C(=O)c3c(F)cc(-c4cccnc4)cc3F)CC2)C1` [Example 116, {1-[1-(2,6-difluoro-4-pyridin-3-ylbenzoyl)piperidin-4-yl]-3-[4-(7H-pyrrolo[2,3-d]pyrimidin-4-yl)-1H-pyrazol-1-yl]azetidin-3-yl}acetonitrile] the same measures were 10.6, at most 5 nM and 10 to 50 nM.
Consider `N#CCC1(n2cc(-c3ncnc4[nH]ccc34)cn2)CN(C2CCN(C(=O)c3ccc(-c4ccncc4)c(F)c3)CC2)C1` [Example 117, {1-[1-(3-fluoro-4-pyridin-4-ylbenzoyl)piperidin-4-yl]-3-[4-(7H-pyrrolo[2,3-d]pyrimidin-4-yl)-1H-pyrazol-1-yl]azetidin-3-yl}acetonitrile], for which the “IC50 Ratio JAK2/JAK1” value in assay [1] stood at 10.0. Also, the half-maximal inhibitory concentration (IC50) (as a rule, the concentration that inhibits the measured activity by half) is at most 5 nM in assay [2] and 10 to 50 nM in assay [3].
As to `N#CCC1(n2cc(-c3ncnc4[nH]ccc34)cn2)CN(C2CCN(C(=O)c3ccc(-c4ccc(C#N)cc4)c(F)c3)CC2)C1` [Example 118, 4′-[(4-{3-(cyanomethyl)-3-[4-(7H-pyrrolo[2,3-d]pyrimidin-4-yl)-1H-pyrazol-1-yl]azetidin-1-yl}piperidin-1-yl)carbonyl]-2′-fluorobiphenyl-4-carbonitrile], in assay [1], the “IC50 Ratio JAK2/JAK1” value is on record as 21.5. The concentration for half-maximal inhibition (IC50) in assay [2] was at most 5 nM; in assay [3], 10 to 50 nM.
On to `N#CCC1(n2cc(-c3ncnc4[nH]ccc34)cn2)CN(C2CCN(C(=O)c3ccc(-c4ccc(C#N)c(F)c4)c(F)c3)CC2)C1` [Example 119, 4′-[(4-{3-(cyanomethyl)-3-[4-(7H-pyrrolo[2,3-d]pyrimidin-4-yl)-1H-pyrazol-1-yl]azetidin-1-yl}piperidin-1-yl)carbonyl]-2′,3-difluorobiphenyl-4-carbonitrile], for which the “IC50 Ratio JAK2/JAK1” value in assay [1] was found to be 14.0. Moreover, the results for the concentration for half-maximal inhibition (IC50) in assay [2] and in assay [3] were at most 5 nM and 10 to 50 nM, respectively.
Regarding `N#CCC1(n2cc(-c3ncnc4[nH]ccc34)cn2)CN(C2CCN(C(=O)c3ccc(-c4cccnc4)c(F)c3)CC2)C1` [Example 123, {1-[1-(3-fluoro-4-pyridin-3-ylbenzoyl)piperidin-4-yl]-3-[4-(7H-pyrrolo[2,3-d]pyrimidin-4-yl)-1H-pyrazol-1-yl]azetidin-3-yl}acetonitrile], the “IC50 Ratio JAK2/JAK1” value in assay [1] is 3.8. The results for the concentration for half-maximal inhibition (IC50) in assay [2] and in assay [3] were at most 5 nM and at most 10 nM, respectively.
As for `N#CCC1(n2cc(-c3ncnc4[nH]ccc34)cn2)CN(C2CCN(C(=O)c3ccc(-c4ccccc4C#N)c(F)c3)CC2)C1` [Example 124, 4′-[(4-{3-(cyanomethyl)-3-[4-(7H-pyrrolo[2,3-d]pyrimidin-4-yl)-1H-pyrazol-1-yl]azetidin-1-yl}piperidin-1-yl)carbonyl]-2′-fluorobiphenyl-2-carbonitrile], the “IC50 Ratio JAK2/JAK1” value in assay [1] is 8.4. For the same compound, the half-maximal inhibitory concentration (IC50) was at most 5 nM in assay [2] and at most 10 nM in assay [3].
For `N#CCC1(n2cc(-c3ncnc4[nH]ccc34)cn2)CN(C2CCN(C(=O)c3ccc(-c4cccc(C#N)c4)c(F)c3)CC2)C1` [Example 125, 4′-[(4-{3-(cyanomethyl)-3-[4-(7H-pyrrolo[2,3-d]pyrimidin-4-yl)-1H-pyrazol-1-yl]azetidin-1-yl}piperidin-1-yl)carbonyl]-2′-fluorobiphenyl-3-carbonitrile], the “IC50 Ratio JAK2/JAK1” value in assay [1] worked out at 8.1. In addition, the IC50 in assay [2] was at most 5 nM; in assay [3] it was 10 to 50 nM.
Take `N#CCC1(n2cc(-c3ncnc4[nH]ccc34)cn2)CN(C2CCN(C(=O)c3ccc(-c4ccc(C#N)cc4)cc3)CC2)C1` [Example 126, 4′-[(4-{3-(cyanomethyl)-3-[4-(7H-pyrrolo[2,3-d]pyrimidin-4-yl)-1H-pyrazol-1-yl]azetidin-1-yl}piperidin-1-yl)carbonyl]biphenyl-4-carbonitrile]: the “IC50 Ratio JAK2/JAK1” value in assay [1] stood at 6.3. The IC50 is at most 5 nM in assay [2] and 10 to 50 nM in assay [3].
For the compound `N#CCC1(n2cc(-c3ncnc4[nH]ccc34)cn2)CN(C2CCN(C(=O)c3ccc(-c4ccc(F)c(F)c4)c(F)c3)CC2)C1` [Example 127, (3-[4-(7H-pyrrolo[2,3-d]pyrimidin-4-yl)-1H-pyrazol-1-yl]-1-{1-[(2,3′,4′-trifluorobiphenyl-4-yl)carbonyl]piperidin-4-yl}azetidin-3-yl)acetonitrile], the “IC50 Ratio JAK2/JAK1” value in assay [1] amounted to 4.3. The 50% inhibitory concentration (IC50) was in the range of 5 to 20 nM in assay [2] and 10 to 50 nM in assay [3].
`N#CCC1(n2cc(-c3ncnc4[nH]ccc34)cn2)CN(C2CCN(C(=O)c3ccc(-c4cc(F)cc(C#N)c4)c(F)c3)CC2)C1` [Example 128, 4′-[(4-{3-(cyanomethyl)-3-[4-(7H-pyrrolo[2,3-d]pyrimidin-4-yl)-1H-pyrazol-1-yl]azetidin-1-yl}piperidin-1-yl)carbonyl]-2′,5-difluorobiphenyl-3-carbonitrile]: the “IC50 Ratio JAK2/JAK1” value in assay [1] was determined as 3.5. For the same compound, the half-inhibitory concentration (IC50) in assay [2] is at most 5 nM; in assay [3], 10 to 50 nM.
For `N#CCC1(n2cc(-c3ncnc4[nH]ccc34)cn2)CN(C2CCN(C(=O)c3ccc(-c4cccc5ncccc45)c(F)c3)CC2)C1` [Example 129, {1-[1-(3-fluoro-4-quinolin-5-ylbenzoyl)piperidin-4-yl]-3-[4-(7H-pyrrolo[2,3-d]pyrimidin-4-yl)-1H-pyrazol-1-yl]azetidin-3-yl}acetonitrile] the same measures were 7.9, at most 5 nM and at most 10 nM.
As for `N#CCC1(n2cc(-c3ncnc4[nH]ccc34)cn2)CN(C2CCN(C(=O)c3ccc(-c4cccc5cnccc45)c(F)c3)CC2)C1` [Example 130, {1-[1-(3-fluoro-4-isoquinolin-5-ylbenzoyl)piperidin-4-yl]-3-[4-(7H-pyrrolo[2,3-d]pyrimidin-4-yl)-1H-pyrazol-1-yl]azetidin-3-yl}acetonitrile], in assay [1], the “IC50 Ratio JAK2/JAK1” value was found to be 7.1. Moreover, the concentration for half-maximal inhibition (IC50) in assay [2] was at most 5 nM; in assay [3] it was at most 10 nM.
Consider `N#CCC1(n2cc(-c3ncnc4[nH]ccc34)cn2)CN(C2CCN(C(=O)c3ccc(-c4cccc5ccncc45)c(F)c3)CC2)C1` [Example 131, {1-[1-(3-fluoro-4-isoquinolin-8-ylbenzoyl)piperidin-4-yl]-3-[4-(7H-pyrrolo[2,3-d]pyrimidin-4-yl)-1H-pyrazol-1-yl]azetidin-3-yl}acetonitrile], for which the “IC50 Ratio JAK2/JAK1” value in assay [1] stood at 8.1. In addition, the IC50 in assay [2] was at most 5 nM; in assay [3] it was 10 to 50 nM.
On to `N#CCC1(n2cc(-c3ncnc4[nH]ccc34)cn2)CN(C2CCN(C(=O)c3ccc(-c4ccc5ccncc5c4)c(F)c3)CC2)C1` [Example 133, {1-[1-(3-fluoro-4-isoquinolin-7-ylbenzoyl)piperidin-4-yl]-3-[4-(7H-pyrrolo[2,3-d]pyrimidin-4-yl)-1H-pyrazol-1-yl]azetidin-3-yl}acetonitrile], for which the “IC50 Ratio JAK2/JAK1” value in assay [1] is 7.9. The 50% inhibitory concentration (IC50) in assay [2] was at most 5 nM; in assay [3], 10 to 50 nM.
`N#CCC1(n2cc(-c3ncnc4[nH]ccc34)cn2)CN(C2CCN(C(=O)c3ccc(-c4ccc5cccnc5c4)c(F)c3)CC2)C1` [Example 134, {1-[1-(3-fluoro-4-quinolin-7-ylbenzoyl)piperidin-4-yl]-3-[4-(7H-pyrrolo[2,3-d]pyrimidin-4-yl)-1H-pyrazol-1-yl]azetidin-3-yl}acetonitrile]: the “IC50 Ratio JAK2/JAK1” value in assay [1] stood at 6.7. The half-inhibitory concentration (IC50) is at most 5 nM in assay [2] and 10 to 50 nM in assay [3].
`N#CCC1(n2cc(-c3ncnc4[nH]ccc34)cn2)CN(C2CCN(C(=O)c3ccc(-c4ccc5nccn5c4)c(F)c3)CC2)C1` [Example 135, {1-[1-(3-fluoro-4-imidazo[1,2-a]pyridin-6-ylbenzoyl)piperidin-4-yl]-3-[4-(7H-pyrrolo[2,3-d]pyrimidin-4-yl)-1H-pyrazol-1-yl]azetidin-3-yl}acetonitrile]: the “IC50 Ratio JAK2/JAK1” value in assay [1] was 7.1. Also, the half-inhibitory concentration (IC50) in assay [2] is at most 5 nM; in assay [3], 10 to 50 nM.
For `N#CCC1(n2cc(-c3ncnc4[nH]ccc34)cn2)CN(C2CCN(C(=O)c3ccc(-c4nc5ccccc5o4)cc3)CC2)C1` [Example 136, {1-{1-[4-(1,3-benzoxazol-2-yl)benzoyl]piperidin-4-yl}-3-[4-(7H-pyrrolo[2,3-d]pyrimidin-4-yl)-1H-pyrazol-1-yl]azetidin-3-yl}acetonitrile], the “IC50 Ratio JAK2/JAK1” value in assay [1] worked out at 5.6. Moreover, the IC50 was 5 to 20 nM in assay [2] and above 100 nM in assay [3].
For `N#CCC1(n2cc(-c3ncnc4[nH]ccc34)cn2)CN(C2CCN(C(=O)c3ccc(-c4nc5ccccc5o4)c(F)c3)CC2)C1` [Example 137, {1-{1-[4-(1,3-benzoxazol-2-yl)-3-fluorobenzoyl]piperidin-4-yl}-3-[4-(7H-pyrrolo[2,3-d]pyrimidin-4-yl)-1H-pyrazol-1-yl]azetidin-3-y4}acetonitrile], the “IC50 Ratio JAK2/JAK1” value in assay [1] was found to be 6.0. The IC50 in assay [2] was 20 to 30 nM; in assay [3], above 100 nM.
`N#CCC1(n2cc(-c3ncnc4[nH]ccc34)cn2)CN(C2CC3CCC(C2)N3C(=O)c2cc(F)cc(C#N)c2)C1` (stereo not drawn) [Example 138, 3-[(3-{3-(Cyanomethyl)-3-[4-(7H-pyrrolo[2,3-d]pyrimidin-4-yl)-1H-pyrazol-1-yl]azetidin-1-yl}-8-azabicyclo[3.2.1]oct-8-yl)carbonyl]-5-fluorobenzonitrile]: the “IC50 Ratio JAK2/JAK1” value in assay [1] is recorded as 13.9. Further, the 50% inhibitory concentration (IC50) is at most 5 nM in assay [2] and at most 10 nM in assay [3].
